Source: article PMC11054573, “Identification of Ureidocoumarin-Based Selective Discoidin Domain Receptor 1 (DDR1) Inhibitors via Drug Repurposing Approach, Biological Evaluation, and In Silico Studies” (Pharmaceuticals, 2024)

Experiments:
[1] = system: K562 leukemia cells; experiment: NCI SRB antiproliferative assay, K562; format: cell-based; conditions: Homo sapiens; for inhibition at 10 µM: read-out: % Growth inhibition at 10 µM K562; for GI50: five-dose testing
Experimental: (§1) Six members, 3a, 3g–j, and 3q, out of the investigated compounds were further evaluated for their antiproliferative effects against human cancer cell lines, including leukemia (K562), colon cancer (HCT116), non-small cell lung (NSCL) cancer (A549, NCI-H23 and NCI-H460), and breast cancer (MCF-7 and T47D) cells. The tested cell lines’ choice depended on their elevated DDR1 expression levels. The cell lines were all treated with a 10 µM concentration of the tested compounds, and the results were expressed as the percentage of growth inhibition (%GI) (Table 4).
(§2) Inhibition of the tumor relevant carbonic anhydrases IX and XII may be one of these additional mechanisms.
(§3) The evaluation of the antiproliferative activities of compounds 3a, 3g–j, and 3q over a panel of DDR1-dependent cell lines was conducted employing the sensitive Sulforhodamine B (SRB) assay at the National Cancer Institute (NCI), Bethesda, Maryland, USA, following the standard protocol.

[2] = system: HCT116 colon cancer cells; experiment: NCI SRB antiproliferative assay, HCT116; format: cell-based; conditions: Homo sapiens, HCT-116; for inhibition at 10 µM: read-out: % Growth inhibition at 10 µM HCT116; for GI50: five-dose testing
Experimental: as §1, §2, §3

[3] = system: A549 non-small cell lung cancer cells; experiment: NCI SRB antiproliferative assay, A549; format: cell-based; conditions: Homo sapiens; for inhibition at 10 µM: read-out: % Growth inhibition at 10 µM A549; for GI50: five-dose testing
Experimental: as §1, §2, §3

[4] = system: NCI-H23 non-small cell lung cancer cells; experiment: NCI SRB antiproliferative assay, NCI-H23; format: cell-based; conditions: Homo sapiens; for inhibition at 10 µM: read-out: % Growth inhibition at 10 µM NCI-H23; for GI50: five-dose testing
Experimental: as §1, §2, §3

[5] = system: NCI-H460 non-small cell lung cancer cells; experiment: NCI SRB antiproliferative assay, NCI-H460; format: cell-based; conditions: Homo sapiens; for inhibition at 10 µM: read-out: % Growth inhibition at 10 µM NCI-H460; for GI50: five-dose testing
Experimental: as §1, §2, §3

[6] = system: MCF-7 breast cancer cells; experiment: NCI SRB antiproliferative assay, MCF-7; format: cell-based; conditions: Homo sapiens, MCF7; for inhibition at 10 µM: read-out: % Growth inhibition at 10 µM MCF-7; for GI50: five-dose testing
Experimental: as §1, §2, §3

[7] = system: T47D breast cancer cells; experiment: NCI SRB antiproliferative assay, T47D; format: cell-based; conditions: Homo sapiens; for inhibition at 10 µM: read-out: % Growth inhibition at 10 µM T47D; for GI50: five-dose testing
Experimental: as §1, §2, §3

[8] = target: DDR1 (Homo sapiens, UniProt Q08345); experiment: RBC radiometric HotSpot kinase assay, DDR1; conditions: for SI: Selectivity index (IC50 DDR2/IC50 DDR1): DDR1 over DDR2; for inhibition at 10 µM: read-out: % Inhibition at 10 μM (SEM) DDR1
Experimental: (§4) All compounds in this study were tested against DDR1 and DDR2 at a 10 µM dose at Reaction Biology Corporation (RBC, Malvern, PA, USA) employing the radiometric HotSpot Kinase assay protocol (Table 1).

[9] = target: T1, DDR2 (Homo sapiens, UniProt Q16832); experiment: RBC radiometric HotSpot kinase assay, DDR2; conditions: for inhibition at 10 µM: read-out: % Inhibition at 10 μM (SEM) DDR2
T1 sequence (Q16832 22-855): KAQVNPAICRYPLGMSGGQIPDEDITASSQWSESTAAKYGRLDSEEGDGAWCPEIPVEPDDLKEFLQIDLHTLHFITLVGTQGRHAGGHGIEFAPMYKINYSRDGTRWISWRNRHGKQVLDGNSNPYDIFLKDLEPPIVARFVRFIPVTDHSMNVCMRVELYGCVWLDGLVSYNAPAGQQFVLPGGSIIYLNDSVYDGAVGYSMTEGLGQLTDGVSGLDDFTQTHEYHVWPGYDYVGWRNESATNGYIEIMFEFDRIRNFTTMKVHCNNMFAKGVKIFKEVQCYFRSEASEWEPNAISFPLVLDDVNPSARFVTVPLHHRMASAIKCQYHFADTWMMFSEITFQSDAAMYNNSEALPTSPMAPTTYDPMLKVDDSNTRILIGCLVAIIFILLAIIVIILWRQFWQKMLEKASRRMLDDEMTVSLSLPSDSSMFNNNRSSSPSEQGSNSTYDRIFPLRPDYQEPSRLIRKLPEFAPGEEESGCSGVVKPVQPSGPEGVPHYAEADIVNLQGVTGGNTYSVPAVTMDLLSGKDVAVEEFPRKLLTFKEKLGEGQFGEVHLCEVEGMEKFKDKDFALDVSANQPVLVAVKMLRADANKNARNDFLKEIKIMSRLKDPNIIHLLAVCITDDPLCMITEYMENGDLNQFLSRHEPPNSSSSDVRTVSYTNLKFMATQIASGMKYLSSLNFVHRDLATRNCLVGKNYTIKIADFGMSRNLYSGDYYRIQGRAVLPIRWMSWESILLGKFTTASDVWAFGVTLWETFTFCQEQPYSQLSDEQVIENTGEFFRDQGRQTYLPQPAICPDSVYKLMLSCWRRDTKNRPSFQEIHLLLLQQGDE
Experimental: as §4

[10] = system: DDR1-dependent cancer cell lines; experiment: NCI SRB antiproliferative assay, whole panel of DDR1-dependent cell lines; format: cell-based, human; conditions: span over the seven cell lines
Experimental: as §1, §2, §3

Chain of DDR1 (Q08345 19-913): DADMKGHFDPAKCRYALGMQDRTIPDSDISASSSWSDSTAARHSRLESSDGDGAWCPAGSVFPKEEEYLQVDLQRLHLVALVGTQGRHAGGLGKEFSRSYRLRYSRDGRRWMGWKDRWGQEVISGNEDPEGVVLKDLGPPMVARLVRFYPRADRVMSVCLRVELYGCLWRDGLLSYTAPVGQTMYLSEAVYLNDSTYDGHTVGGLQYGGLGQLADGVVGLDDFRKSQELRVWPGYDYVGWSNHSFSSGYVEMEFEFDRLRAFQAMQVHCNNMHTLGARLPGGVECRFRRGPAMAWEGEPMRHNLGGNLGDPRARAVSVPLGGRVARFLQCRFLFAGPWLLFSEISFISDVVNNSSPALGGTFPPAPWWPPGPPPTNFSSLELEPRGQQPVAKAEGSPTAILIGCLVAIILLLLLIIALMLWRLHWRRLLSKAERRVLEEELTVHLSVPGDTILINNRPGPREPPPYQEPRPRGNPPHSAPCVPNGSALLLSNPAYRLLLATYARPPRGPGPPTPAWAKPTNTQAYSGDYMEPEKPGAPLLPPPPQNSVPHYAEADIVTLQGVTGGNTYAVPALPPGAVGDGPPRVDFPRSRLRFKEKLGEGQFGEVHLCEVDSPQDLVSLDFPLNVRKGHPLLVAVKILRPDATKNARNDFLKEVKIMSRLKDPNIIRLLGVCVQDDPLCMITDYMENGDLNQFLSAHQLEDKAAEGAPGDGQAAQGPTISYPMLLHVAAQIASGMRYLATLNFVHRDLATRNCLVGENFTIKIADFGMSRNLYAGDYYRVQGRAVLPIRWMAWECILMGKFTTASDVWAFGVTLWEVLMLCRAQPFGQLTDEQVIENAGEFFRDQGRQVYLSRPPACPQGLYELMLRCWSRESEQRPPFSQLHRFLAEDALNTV

SMILES | inhibition at 10 µM [1] | inhibition at 10 µM [2] | inhibition at 10 µM [3] | inhibition at 10 µM [4] | inhibition at 10 µM [5] | inhibition at 10 µM [6] | inhibition at 10 µM [7] | IC50 [8] | SI: Selectivity index (IC50 DDR2/IC50 DDR1) [8] | inhibition at 10 µM [8] | IC50 [9] | inhibition at 10 µM [9] | other results
O=C(Nc1cccc(C(F)(F)F)c1)Nc1ccc2oc(=O)ccc2c1 [Compound 3a] | 33.2% | 20.9% | 10.4% | 13.2% | 15.8% | 29.2% | 24.6% | 0.321 µM | 7.5 | 92.7% | 2.39 µM | 83.6% | –
O=C(Nc1ccc(C(F)(F)F)cc1)Nc1ccc2oc(=O)ccc2c1 [Compound 3b] | – | – | – | – | – | – | – | – | – | 24.5% | – | 11.7% | –
O=C(Nc1ccc(F)cc1)Nc1ccc2oc(=O)ccc2c1 [Compound 3c] | – | – | – | – | – | – | – | – | – | 25.6% | – | 15.9% | –
O=C(Nc1ccc(Br)cc1)Nc1ccc2oc(=O)ccc2c1 [Compound 3d] | – | – | – | – | – | – | – | – | – | 23.1% | – | 7.53% | –
CCCCc1ccc(NC(=O)Nc2ccc3oc(=O)ccc3c2)cc1 [Compound 3e] | – | – | – | – | – | – | – | – | – | 15.4% | – | 3.07% | –
CCCCOc1ccc(NC(=O)Nc2ccc3oc(=O)ccc3c2)cc1 [Compound 3f] | – | – | – | – | – | – | – | – | – | 10.6% | – | 5.52% | –
O=C(Nc1ccc(Cl)c(C(F)(F)F)c1)Nc1ccc2oc(=O)ccc2c1 [Compound 3g] | 80.8% | 84.3% | 60.1% | 95.2% | 81.9% | 88.1% | 91.3% | 2.9 µM | >3.4 | 49% | > 10 µM | 39.3% | –
O=C(Nc1ccc(F)c(Cl)c1)Nc1ccc2oc(=O)ccc2c1 [Compound 3h] | 32.2% | 14.1% | 15.1% | 14.3% | 20.6% | 25.4% | 24.6% | 1.66 µM | >6.0 | 57.2% | > 10 µM | 27.5% | %GI over all tested cell lines ([10]; 10 µM): < 35%
O=C(Nc1cc(C(F)(F)F)cc(C(F)(F)F)c1)Nc1ccc2oc(=O)ccc2c1 [Compound 3i] | 86.3% | 97.9% | 84.8% | 100% | 93.6% | 96.2% | 95.2% | 1.53 µM | 12.4 | 77.1% | 19 µM | 67.3% | GI50 [1]: 0.55 µM; GI50 [2]: 0.732 µM; GI50 [3]: 1.59 µM; GI50 [4]: 0.94 µM; GI50 [5]: 0.69 µM; GI50 [6]: 1.94 µM; GI50 [7]: 1.34 µM
O=C(Nc1cc(Cl)cc(Cl)c1)Nc1ccc2oc(=O)ccc2c1 [Compound 3j] | 84.6% | 98.6% | 83.8% | 106% | 98.8% | 94.5% | 96.5% | 2.52 µM | >4.0 | 48.5% | > 10 µM | 23.3% | GI50 [1]: 2.34 µM; GI50 [2]: 2.31 µM; GI50 [3]: 2.9 µM; GI50 [4]: 2.67 µM; GI50 [5]: 2.27 µM; GI50 [6]: 2.28 µM; GI50 [7]: 1.93 µM; GI50 ([10]; Homo sapiens, read-out: GI50 over all tested cell lines): 1.93 to 2.9 µM
Cc1cc(C)cc(NC(=O)Nc2ccc3oc(=O)ccc3c2)c1 [Compound 3k] | – | – | – | – | – | – | – | – | – | 33.8% | – | 17.3% | –
O=C(Nc1ccc2oc(=O)ccc2c1)Nc1ccc(Cl)cc1Cl [Compound 3l] | – | – | – | – | – | – | – | – | – | 19% | – | 17.1% | –
